According to publication PMC8509773, “3-Pyridinylidene Derivatives of Chemically Modified Lupane and Ursane Triterpenes as Promising Anticancer Agents by Targeting Apoptosis” (International Journal of Molecular Sciences, 2021):

Tests used:
Test in all cases: NCI-60 SRB screening (one-dose and five-dose)
Assay type in all cases: cell-based, human
[1] = tested on: A498; settings: A498, 10 μM, 48 h
Protocol: (§1) The compounds were added at a single concentration and the cell cultures were incubated for 48 h. The end point determinations were made with a protein binding dye, sulforhodamine B (SRB). […] The percentage of growth was evaluated spectrophotometrically versus controls not treated with test agents after 48-h exposure and using SRB protein assay to estimate cell viability or growth. […] Furthermore, mean graph midpoints (MG_MID) were calculated for each of the parameters, giving an average activity parameter over all cell lines for the tested compound. For the MG_MID calculation, insensitive cell lines were included with the highest concentration tested.

[2] = tested on: BT-549; settings: BT-549, 10 μM, 48 h
Protocol: as §1

[3] = tested on: CAKI-1; settings: CAKI-1, 10 μM, 48 h
Protocol: as §1

[4] = tested on: HCC-2998; settings: HCC-2998, 10 μM, 48 h
Protocol: as §1

[5] = tested on: HCT-15; settings: HCT-15, 10 μM, 48 h
Protocol: as §1

[6] = tested on: HOP-62; settings: HOP-62, 10 μM, 48 h
Protocol: as §1

[7] = tested on: HOP-92; settings: HOP-92, 10 μM, 48 h
Protocol: as §1

[8] = tested on: HS 578T; settings: 10 μM, 48 h
Protocol: as §1

[9] = tested on: HT29; settings: HT29, 10 μM, 48 h
Protocol: as §1

[10] = tested on: IGROV1; settings: IGROV1, 10 μM, 48 h
Protocol: as §1

[11] = tested on: KM-12; settings: KM-12, 10 μM, 48 h
Protocol: as §1

[12] = tested on: LOX IMVI; settings: 10 μM, 48 h
Protocol: as §1

[13] = tested on: M14; settings: M14, 10 μM, 48 h
Protocol: as §1

[14] = tested on: MCF7; settings: MCF7, 10 μM, 48 h
Protocol: as §1

[15] = tested on: MDA-MB-231/ATCC; settings: 10 μM, 48 h
Protocol: as §1

[16] = tested on: MDA-MB-468; settings: MDA-MB-468, 10 μM, 48 h
Protocol: as §1

[17] = tested on: NCI-H226; settings: NCI-H226, 10 μM, 48 h
Protocol: as §1

[18] = tested on: NCI-H23; settings: NCI-H23, 10 μM, 48 h
Protocol: as §1

[19] = tested on: NCI-H322M; settings: 10 μM, 48 h
Protocol: as §1

[20] = tested on: NCI-H460; settings: NCI-H460, 10 μM, 48 h
Protocol: as §1

[21] = tested on: NCI-H522; settings: NCI-H522, 10 μM, 48 h
Protocol: as §1

[22] = tested on: NCI/ADR-RES; settings: 10 μM, 48 h
Protocol: as §1

[23] = tested on: OVCAR-3; settings: OVCAR-3, 10 μM, 48 h
Protocol: as §1

[24] = tested on: OVCAR-5; settings: OVCAR-5, 10 μM, 48 h
Protocol: as §1

[25] = tested on: OVCAR-8; settings: OVCAR-8, 10 μM, 48 h
Protocol: as §1

[26] = tested on: PC-3; settings: PC-3, 10 μM, 48 h
Protocol: as §1

[27] = tested on: RPMI-8226; settings: RPMI-8226, 10 μM, 48 h
Protocol: as §1

[28] = tested on: RXF 393; settings: RXF 393, 10 μM, 48 h
Protocol: as §1

[29] = tested on: SF-295; settings: SF-295, 10 μM, 48 h
Protocol: as §1

[30] = tested on: SK-MEL-28; settings: SK-MEL-28, 10 μM, 48 h
Protocol: as §1

[31] = tested on: SK-MEL-2; settings: SK-MEL-2, 10 μM, 48 h
Protocol: as §1

[32] = tested on: SK-OV-3; settings: SK-OV-3, 10 μM, 48 h
Protocol: as §1

[33] = tested on: SNB-19; settings: SNB-19, 10 μM, 48 h
Protocol: as §1

[34] = tested on: SW-620; settings: SW-620, 10 μM, 48 h
Protocol: as §1

[35] = tested on: TK-10; settings: TK-10, 10 μM, 48 h
Protocol: as §1

[36] = tested on: U251; settings: U251, 10 μM, 48 h
Protocol: as §1

[37] = tested on: UACC-62; settings: UACC-62, 10 μM, 48 h
Protocol: as §1

[38] = tested on: HL-60(TB); settings: 10 μM, 48 h
Protocol: as §1

[39] = tested on: K-562; settings: K-562, 10 μM, 48 h
Protocol: as §1

[40] = tested on: SR; settings: 10 μM, 48 h
Protocol: as §1

Row | SMILES | Growth Percent [1] [%] | Growth Percent [3] [%] | Growth Percent [4] [%] | Growth Percent [5] [%] | Growth Percent [6] [%] | Growth Percent [7] [%] | Growth Percent [8] [%] | Growth Percent [9] [%] | Growth Percent [10] [%] | Growth Percent [11] [%] | Growth Percent [12] [%] | Growth Percent [13] [%] | Growth Percent [14] [%] | Growth Percent [15] [%] | Growth Percent [16] [%] | Growth Percent [17] [%] | Growth Percent [18] [%] | Growth Percent [19] [%] | Growth Percent [20] [%] | Growth Percent [22] [%] | further results
1 | C[C@H]1[C@@H]2[C@H]3CC[C@@H]4[C@@]5(C)CC[C@H](O)C(C)(C)[C@@H]5CC[C@@]4(C)[C@]3(C)CC[C@]23CO[C@@]1(C)[C@@H](C(=O)/C=C/c1ccco1)C3 [Compound 5, 3β-Hydroxy-21-[3-(2E-furyl)-prop-2-en-1-one]-20β,28-epoxy-18α,19βH-ursane] | 96.19 | 55.81 | 104.00 | 105.61 | 104.25 | 65.36 | 95.83 | 98.06 | 107.89 | 99.96 | 89.02 | 34.35 | 101.23 | 82.90 | 19.35 | 99.66 | 98.55 | 88.29 | 109.09 | 95.25 | Growth Percent [2]: 104.50%; Growth Percent [21]: 87.83%; Growth Percent [23]: 102.55%; Growth Percent [24]: 102.21%; Growth Percent [25]: 99.33%; Growth Percent [26]: 92.69%; Growth Percent [27]: 105.93%; Growth Percent [28]: 109.55%; Growth Percent [29]: 109.70%; Growth Percent [30]: 36.66%; Growth Percent [31]: 9.51%; Growth Percent [32]: 102.58%; Growth Percent [33]: 75.34%; Growth Percent [34]: 97.06%; Growth Percent [35]: 97.40%; Growth Percent [36]: 69.38%; Growth Percent [37]: 7.16%
2 | CC(=O)[C@H]1C[C@]23CC[C@]4(C)[C@H](CC[C@@H]5[C@@]6(C)CCC(=O)C(C)(C)[C@@H]6CC[C@]54C)[C@H]2[C@H](C)[C@@]1(C)OC3 [Compound 2, 3-oxo-21β-acetyl-20β,28-epoxy-18α,19βH-ursane] | 67.96 | 66.38 | 109.84 | 111.38 | 80.72 | 95.88 | 103.91 | 108.96 | 88.93 | 102.54 | 94.48 | 107.08 | 90.80 | 85.22 | 108.53 | 95.16 | 90.60 | 106.71 | 94.87 | 102.89 | Growth Percent [38]: 133.26%; Growth Percent [39]: 103.93%; Growth Percent [23]: 119.38%; Growth Percent [24]: 96.55%; Growth Percent [25]: 104.68%; Growth Percent [26]: 87.23%; Growth Percent [27]: 102.14%; Growth Percent [28]: 76.40%; Growth Percent [29]: 99.35%; Growth Percent [30]: 109.33%; Growth Percent [31]: 105.22%; Growth Percent [32]: 118.18%; Growth Percent [33]: 98.03%; Growth Percent [40]: 92.32%; Growth Percent [34]: 95.81%; Growth Percent [35]: 76.40%; Growth Percent [36]: 107.36%; Growth Percent [37]: 85.81%
